Data published in PMC6943619, “Synthesis and Pharmacological Evaluation of Hybrids Targeting Opioid and Neurokinin Receptors” (Molecules, 2019).
Where a SMILES comes first, the peptide text is derived from it. Bridges are numbered along the chain shown (N, C = ends). [ ]: non-standard residue; d: D form. Nle = CCCC[C@H](N)C(=O)O

Key:
[1] = target: T1, human opioid receptor MOR (Homo sapiens, UniProt P35372); experiment: Radioligand binding assay, displacement of [3H]DAMGO; settings: displacement of [3H]DAMGO from membranes of CHO cells transfected with human MOR, 50 mM Tris/HCl pH 7.4, 0.5% BSA, peptidase inhibitors, 2 h at 25 °C, mean ± SEM, n ≥ 3
T1 construct: purchased PerkinElmer (Krakow, Poland); host or cells: CHO cell membranes
T1 sequence (P35372 whole entry): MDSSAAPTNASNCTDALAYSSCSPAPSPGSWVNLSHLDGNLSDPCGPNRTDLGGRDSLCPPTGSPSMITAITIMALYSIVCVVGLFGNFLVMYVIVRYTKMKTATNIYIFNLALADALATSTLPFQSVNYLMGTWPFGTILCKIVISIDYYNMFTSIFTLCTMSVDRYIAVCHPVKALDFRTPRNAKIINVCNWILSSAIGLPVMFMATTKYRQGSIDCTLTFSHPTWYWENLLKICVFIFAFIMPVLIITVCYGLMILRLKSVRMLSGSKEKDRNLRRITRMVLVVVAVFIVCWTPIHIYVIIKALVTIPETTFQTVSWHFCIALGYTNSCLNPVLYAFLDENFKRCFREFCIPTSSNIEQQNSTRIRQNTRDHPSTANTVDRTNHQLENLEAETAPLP
Method: (§1) A radioligand binding assay was performed to determine the opioid receptor (OR) binding affinities of the novel analogs using commercially available membranes of Chinese hamster ovary cells (CHO) transfected with human recombinant ORs. [^3H]DAMGO, [^3H]deltorphin-2, and [^3H]U-69593 were used as the radioligands for MOR, DOR, and KOR, respectively. Tyr-[D-Lys-Phe-Phe-Asp]NH2 (1) was used as a reference opioid compound. […] None of them acquired significant DOR affinity.
(§2) To determine the affinity of peptide analogs to respective receptors, competition binding experiments were performed, as described in detail elsewhere.
(§3) Commercial membranes of CHO cells stably expressing either human ORs or NK1 receptor were used. [^3H]DAMGO, [^3H]deltorphin-2, and [^3H]U-69593 were employed as the competing radioligands for MOR, DOR, and KOR, respectively, while [^3H][Sar^9, Met(O2)^11]SP was utilized for the NK1 receptor. Membranes were incubated in a 0.5 mL volume of 50 mM Tris/HCl (pH = 7.4), 0.5% bovine serum albumin (BSA), with a number of peptidase inhibitors (bacitracin, bestatin, captopril) and various concentrations of radioligands for 2 h at 25 °C. Nonspecific binding was assessed in the presence of […] naloxone for ORs or SP for NK1 receptor.
(§4) The pharmacological terminology adopted in this paper is consistent with International Union of Basic and Clinical Pharmacology (IUPHAR) recommendations. Concentration–response curves were analyzed by nonlinear regression using Graph Pad Prism 6.0 (La Jolla, CA, USA). […]. […] Concentration–response curves were fitted with the four-parameter logistic nonlinear regression model (1) Effect=baseline+Emax−baseline/1+10^logEC50−X·n where X is the agonist concentration and n is the Hill coefficient. Ligand efficacy was expressed as intrinsic activity (α) calculated as a ratio of the peptide Emax to the Emax of the standard agonist (Supplementary Materials, Figure S7). […]. All statistical analyses were performed using Graph Pad Prism 6.0 (La Jolla, CA, USA). Differences between groups were analyzed with one-way ANOVA and a post hoc multiple comparison by the Student–Newman–Keuls test. A probability level of 0.05 or smaller was used to indicate statistical significance.

[2] = target: T2, human opioid receptor DOR (Homo sapiens, UniProt P41143); experiment: Radioligand binding assay, displacement of [3H]deltorphin-2; settings: displacement of [3H]deltorphin-2 from membranes of CHO cells transfected with human DOR, 50 mM Tris/HCl pH 7.4, 0.5% BSA, peptidase inhibitors, 2 h at 25 °C, mean ± SEM, n ≥ 3
T2 construct: purchased PerkinElmer (Krakow, Poland); host or cells: CHO cell membranes
T2 sequence (P41143 whole entry): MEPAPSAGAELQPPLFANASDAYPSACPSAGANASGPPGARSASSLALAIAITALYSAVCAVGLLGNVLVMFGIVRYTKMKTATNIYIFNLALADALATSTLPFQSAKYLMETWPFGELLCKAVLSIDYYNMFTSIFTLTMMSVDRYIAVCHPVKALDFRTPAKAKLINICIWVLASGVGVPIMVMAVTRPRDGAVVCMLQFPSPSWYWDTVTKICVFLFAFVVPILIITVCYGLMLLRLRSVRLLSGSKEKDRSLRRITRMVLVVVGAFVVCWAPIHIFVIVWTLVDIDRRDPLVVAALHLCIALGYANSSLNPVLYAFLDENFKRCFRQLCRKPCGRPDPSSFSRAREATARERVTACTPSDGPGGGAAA
Method: A radioligand binding assay was performed to determine the opioid receptor (OR) binding affinities of the novel analogs using commercially available membranes of Chinese hamster ovary cells (CHO) transfected with human recombinant ORs. […] Tyr-[D-Lys-Phe-Phe-Asp]NH2 (1) was used as a reference opioid compound.
as §2
Commercial membranes of CHO cells stably expressing either human ORs or NK1 receptor were used. […] Membranes were incubated in a 0.5 mL volume of 50 mM Tris/HCl (pH = 7.4), 0.5% bovine serum albumin (BSA), with a number of peptidase inhibitors (bacitracin, bestatin, captopril) and various concentrations of radioligands for 2 h at 25 °C.
The pharmacological terminology adopted in this paper is consistent with International Union of Basic and Clinical Pharmacology (IUPHAR) recommendations. Concentration–response curves were analyzed by nonlinear regression using Graph Pad Prism 6.0 (La Jolla, CA, USA). […] Concentration–response curves were fitted with the four-parameter logistic nonlinear regression model (1) Effect=baseline+Emax−baseline/1+10^logEC50−X·n where X is the agonist concentration and n is the Hill coefficient. Ligand efficacy was expressed as intrinsic activity (α) calculated as a ratio of the peptide Emax to the Emax of the standard agonist (Supplementary Materials, Figure S7). […] All statistical analyses were performed using Graph Pad Prism 6.0 (La Jolla, CA, USA). Differences between groups were analyzed with one-way ANOVA and a post hoc multiple comparison by the Student–Newman–Keuls test. A probability level of 0.05 or smaller was used to indicate statistical significance.

mice [3] = experiment: Tolerance development, writhing test after repeated injections; assay type: in vivo; settings: 5 mg/kg i.p. once daily for seven days, writhing test on Day 7, n = 10
Method: To examine whether mice developed tolerance to hybrids 2 and 4, these analogs and analog 1 for comparison were injected once daily (5 mg/kg) for seven consecutive days. After repeated administration, the antinociceptive effect was determined on Day 7, performing the writhing test as above.
Figure 4 A comparison of the antinociceptive effect of single (Day 1) and repeated (Day 7) i.p. injections of opioid analog 1 and hybrids 2 and 4 at the dose of 5 mg/kg in the writhing test in mice. The data represent mean ± SEM, n = 10. Statistical significance was assessed using one-way ANOVA and a post hoc multiple comparison by the Student–Newman–Keuls test. *** p < 0.001, as compared to control.
Peptides were administered at the highest dose (5 mg/kg) used before in the writhing test. In the experiment, four new groups of animals (10 mice per group, housed in one cage) underwent repeated injections (i.p.) of saline or the tested compounds (Days 1–7). On Day 7, following saline or peptide administration, the writhing test was performed, as described above. The antinociceptive activity of a compound was compared to the activity obtained after a single injection of this compound in the corresponding dose (5 mg/kg).

[4] = target: T3, human opioid receptor KOR (Homo sapiens, UniProt P41145); experiment: Radioligand binding assay, displacement of [3H]U-69593; settings: displacement of [3H]U-69593 from membranes of CHO cells transfected with human KOR, 50 mM Tris/HCl pH 7.4, 0.5% BSA, peptidase inhibitors, 2 h at 25 °C, mean ± SEM, n ≥ 3
T3 construct: purchased PerkinElmer (Krakow, Poland); host or cells: CHO cell membranes
T3 sequence (P41145 whole entry): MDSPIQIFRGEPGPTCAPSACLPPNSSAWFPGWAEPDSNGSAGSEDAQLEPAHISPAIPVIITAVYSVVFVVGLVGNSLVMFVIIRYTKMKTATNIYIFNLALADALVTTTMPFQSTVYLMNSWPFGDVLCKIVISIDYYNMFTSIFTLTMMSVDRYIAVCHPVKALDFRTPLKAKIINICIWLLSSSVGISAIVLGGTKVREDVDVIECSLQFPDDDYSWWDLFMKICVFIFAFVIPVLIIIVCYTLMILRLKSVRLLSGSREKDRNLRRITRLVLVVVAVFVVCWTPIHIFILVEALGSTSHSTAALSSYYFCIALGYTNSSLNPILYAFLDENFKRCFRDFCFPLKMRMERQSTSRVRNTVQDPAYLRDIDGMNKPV
Method: as §1, §2, §3, §4

mice [5] = experiment: Stool collection (stool mass, stool water content); assay type: in vivo; settings: repeated i.p. injections 5 mg/kg, stool collected 90 min after injection on Days 1–6, compared to control group, n = 10
Method: In order to determine the influence of prolonged administration of the tested compounds on gastrointestinal passage, stool was collected for six days from mice used in the tolerance development test.
Figure 5 Effect of repeated i.p. injections of saline and the tested peptides on stool mass (A), stool water content (B), food intake (C), and water consumption (D). The data represent mean ± SEM, n = 10. Statistical significance was assessed using one-way ANOVA and a post hoc multiple comparison by the Student–Newman–Keuls test. *** p < 0.001, as compared to control.
After the i.p. injections of saline or peptides (Days 1–6), mice were placed in a separate clean cages and stool was collected for a period of 90 min. Fecal pellets were collected immediately after expulsion to avoid evaporation and placed in closed 1.5 mL tubes. Tubes were weighed to obtain the wet weight of the stool. Then, the tubes were opened and stool was dried overnight at 65 °C and reweighed to obtain the dry weight. The stool water content was calculated from the difference between the wet and dry stool weights.

SMILES | Ki [1] [nM] | Ki [2] [nM] | tolerance development (analgesic activity on Day 7 versus Day 1) (mice [3]) | Ki [4] [nM] | stool mass (constipation) (mice [5])
CCCC[C@H](NC(=O)[C@H](CC(C)C)NC(=O)[C@@H](Cc1c[nH]c2ccccc12)NC(=O)[C@H](Cc1ccccc1)NC(=O)[C@@H](Cc1c[nH]c2ccccc12)NC(=O)[C@H](CC(N)=O)NC(=O)[C@@H]1CC(=O)NCCCC[C@@H](NC(=O)[C@@H](N)Cc2ccc(O)cc2)C(=O)N[C@@H](Cc2ccccc2)C(=O)N[C@@H](Cc2ccccc2)C(=O)N1)C(N)=O [compound 2, Tyr-[D-Lys-Phe-Phe-Asp]-Asn-D-Trp-Phe-D-Trp-Leu-Nle-NH2] (H-Y[dK]FFDN[dW]F[dW]L[Nle]-NH2; lactam 2-5) | 5.99 ± 0.7 | 202 ± 2.5 | did not cause tolerance development | 7.46 ± 0.6 | no statistically significant differences
CSCC[C@H](NC(=O)[C@H](CC(C)C)NC(=O)CNC(=O)[C@H](Cc1ccccc1)NC(=O)[C@H](Cc1ccccc1)NC(=O)[C@H](CCC(N)=O)NC(=O)[C@@H]1CC(=O)NCCCC[C@@H](NC(=O)[C@@H](N)Cc2ccc(O)cc2)C(=O)N[C@@H](Cc2ccccc2)C(=O)N[C@@H](Cc2ccccc2)C(=O)N1)C(N)=O [compound 4, Tyr-[D-Lys-Phe-Phe-Asp]-Gln-Phe-Phe-Gly-Leu-Met-NH2] (H-Y[dK]FFDQFFGLM-NH2; lactam 2-5) | 7.98 ± 0.97 | 225 ± 14 | did not cause tolerance development | 10.8 ± 0.85 | no statistically significant differences
